Experimental data taken from patent US20240382626A1, “IRRADIATION AMENABLE LIPOSOMAL DYE AGGREGATES AND METHODS OF SYNTHESIS AND USE THEREOF” (Board of Regents, The University of Texas System, priority 2023, published 2024).
“Also recorded” adds a separate entry of the source.

What was measured:
[1] = In vitro photothermal heating with 808 nm and 852 nm lasers; conditions: 808 nm laser
Description: To assess the heating capacity of IcG and L-JA solutions, two different laser setups were utilized. All laser components including diodes, mounts, fiber optic cables, lens, and adapters were acquired from ThorLabs (Thorlabs Inc., Newton, NJ, USA) Two different laser diodes, one 808 nm the other 852 nm, were mounted, aligned, and focused in view of a high-resolution IR camera and tracked using accompanying software (Teledyne FLIR, Wilsonville, OR, USA). The 852 nm laser system included an optical isolator (ThorLabs) in the light path as recommended by the manufacturer, but otherwise the systems were identical. Laser power was calibrated to 1 W/cm^2 for both lasers and across all experiments. All experiments were conducted in 24- or 96-well plates filled with corresponding contrast agent solutions placed at the focus of the laser and IR camera.

[2] = Photostability during pulsed-laser photoacoustic imaging; type: physicochemical
Protocol: All photoacoustic imaging was performed using the VEVO LAZR-X and F2 Systems (FUJIFILM VisualSonics, Toronto, Canada). The system was calibrated per manufacturer instructions prior to all experiments. Equal concentrations of IcG, IcG-JA, and L-JA were loaded into the plastic tubes before coupling the imaging phantom to the transducer with ultrasound gel. For base characterization, a full spectral scan from 680 nm to 970 nm was performed. Photostability measurements were obtained by imaging at either 800 nm or 890 nm for 30 minutes. At five-minute intervals, which equated to nearly every 1400 pulses (˜280 pulses per minute), the scan was paused to allow for a full spectral scan to be performed. RAW data files from the system were exported and were analyzed using custom software written in MATLAB.

[3] = test system: mouse kidney and surrounding tissue; assay: In vivo contrast enhancement and circulation by photoacoustic imaging; parameters: species or system mice; conditions: systemic administration
Description: Particle circulation was monitored by imaging the mouse kidney and surrounding tissue. The kidney is a high blood flow organ that has the distinct advantage of being easily and rapidly identifiable using ultrasound imaging. Simple setup and identification decreases the amount of time animals are under anesthesia and limits any potential artificial lowering of SO2 due to prolonged exposure to anesthetic agents. Once prepped, mice placed in the imaging system were imaged with power-doppler to confirm blood flow and baseline values for SO2 and contrast agent signals (FIG. 13). Following a bolus injection of a 5 mg/kg dose of contrast agent via the tail vein, the same region was monitored at varying time points. After processing with FUJIFILM VisualSonics' proprietary spectral unmixing software the images were analyzed using in-house MATLAB software. Power-doppler images guide the placement of ROIs around areas of high blood flow allowing isolation and calculation of SO2 and contrast agent signal over the course of imaging.
To assess their performance in vivo, particles were injected intravenously via the tail vein. Particle circulation was monitored by imaging the mouse kidney and surrounding tissue. […] Following a bolus injection of contrast agent via the tail vein, the same region was monitored at multiple time points. […]

[4] = test system: HUVECs; assay: MTS cytotoxicity assay; type: cell-based; conditions: 24 hr incubation, p<0.05
Protocol: The cytotoxicity of L-JA, IcG-JA, and IcG was evaluated on HUVECs and HEK-293T cell lines. The HUVECs were cultured in MCDB-131 medium supplemented with 10% (v/v) fetal bovine serum, 1% L-glutamine, 1% penicillin-streptomycin, and 1% endothelial cell growth supplement. The HEK-293T cells were cultured in Dulbecco's modified Eagle medium (DMEM) supplemented with 10% (v/v) fetal bovine serum and 1% penicillin-streptomycin. Both cell lines were incubated at 37° C. with 5% CO2 in a humidified atmosphere. The HUVEC and HEK-293T cells were seeded at the density of 10,000 cells per well and 5,000 cells per well in 96 well plates. After 24 hours, the culture media was replaced with fresh media containing L-JA, IcG-JA, and IcG at the concentration of 0.25 mM, 0.2 mM, 0.1 mM, and 0.05 mM. Cells incubated without particles were used as a control group. After 24 hours, the culture media was replaced with […] of fresh media. 20 μl of a mixture of [3-(4,5-dimethylthiazol-2-yl)-5-(3-carboxymethoxyphenyl)-2-(4-sulfophenyl)-2H-tetrazolium] (MTS) and phenazine ethosulfate (PES) was then added to each well. The cells were further incubated for 4 hours at 37° C. The absorbance signal at 490 nm was measured using a BioTek plate reader.

CC1(C)C(/C=C/C=C/C=C/C=C2\N(CCCCS(=O)(=O)O)c3ccc4ccccc4c3C2(C)C)=[N+](CCCCS(=O)(=O)[O-])c2ccc3ccccc3c21 [IcG, Indocyanine Green]
behaviour on repeated (cyclic) laser heating (in words) [1]: can only be heated once
time until PA signal fully quenches ([2]; 800 nm laser pulses): 25 min
photoacoustic signal drop ([2]; 800 nm laser pulses, just under 5 pulses per second, after just over 5 minutes / between 5 and 10 minutes): more than 50%
photodegradation (in words) ([2]; 30 minutes of imaging at 800 nm): completely photodegraded
clearance / circulation (in words) [3]: cleared from circulation within an hour; also recorded: fully cleared over the course of a few minutes
concentration at which significant cytotoxicity relative to control occurs [4]: 200 µM
